Results as given in publication PMC8330742, “New benzothieno[2,3-c]pyridines as non-steroidal CYP17 inhibitors: design, synthesis, anticancer screening, apoptosis induction, and in silico ADME profile studies” (Journal of Enzyme Inhibition and Medicinal Chemistry, 2021).

Experiments:
CCRF-CEM = experiment: NCI-60 SRB screen; type: cell-based; settings: Homo sapiens, single dose 10^−5 M, Leukaemia, read-out: Growth inhibition (%)
HL-60(TB) = experiment: NCI-60 SRB screen; type: cell-based, human; settings: Homo sapiens; single dose 10^−5 M; HL-60(TB), Leukaemia; read-out: Growth inhibition (%)
K-562 = experiment: NCI-60 SRB screen; type: cell-based, human; settings: Homo sapiens, K562; single dose 10^−5 M; K-562, Leukaemia; read-out: Growth inhibition (%)
MOLT-4 = experiment: NCI-60 SRB screen; type: cell-based; settings: Homo sapiens; single dose 10^−5 M; MOLT-4, Leukaemia; read-out: Growth inhibition (%)
SR = experiment: NCI-60 SRB screen; type: cell-based; settings: Homo sapiens, single dose 10^−5 M, Leukaemia, read-out: Growth inhibition (%)
A549/ATCC = experiment: NCI-60 SRB screen; type: cell-based, human; settings: Homo sapiens, single dose 10^−5 M, Non-small cell lung carcinoma, read-out: Growth inhibition (%)
EKVX = experiment: NCI-60 SRB screen; type: cell-based, human; settings: Homo sapiens, single dose 10^−5 M, Non-small cell lung carcinoma, read-out: Growth inhibition (%)
HOP-62 = experiment: NCI-60 SRB screen; type: cell-based, human; settings: Homo sapiens; single dose 10^−5 M; HOP-62, Non-small cell lung carcinoma; read-out: Growth inhibition (%)
HOP-92 = experiment: NCI-60 SRB screen; type: cell-based, human; settings: Homo sapiens; single dose 10^−5 M; HOP-92, Non-small cell lung carcinoma; read-out: Growth inhibition (%)
NCI-H226 = experiment: NCI-60 SRB screen; type: cell-based, human; settings: Homo sapiens; single dose 10^−5 M; NCI-H226, Non-small cell lung carcinoma; read-out: Growth inhibition (%)
NCI-H23 = experiment: NCI-60 SRB screen; type: cell-based, human; settings: Homo sapiens; single dose 10^−5 M; NCI-H23, Non-small cell lung carcinoma; read-out: Growth inhibition (%)
NCI-H322M = experiment: NCI-60 SRB screen; type: cell-based, human; settings: Homo sapiens, single dose 10^−5 M, Non-small cell lung carcinoma, read-out: Growth inhibition (%)
NCI-H460 = experiment: NCI-60 SRB screen; type: cell-based, human; settings: Homo sapiens; single dose 10^−5 M; NCI-H460, Non-small cell lung carcinoma; read-out: Growth inhibition (%)
NCI-H522 = experiment: NCI-60 SRB screen; type: cell-based, human; settings: Homo sapiens; single dose 10^−5 M; NCI-H522, Non-small cell lung carcinoma; read-out: Growth inhibition (%)
COLO 205 = experiment: NCI-60 SRB screen; type: cell-based, human; settings: Homo sapiens; single dose 10^−5 M; COLO 205, Colon cancer; read-out: Growth inhibition (%)
HCC-2998 = experiment: NCI-60 SRB screen; type: cell-based, human; settings: Homo sapiens; single dose 10^−5 M; HCC-2998, Colon cancer; read-out: Growth inhibition (%)
HCT-116 = experiment: NCI-60 SRB screen; type: cell-based, human; settings: Homo sapiens; single dose 10^−5 M; HCT-116, Colon cancer; read-out: Growth inhibition (%)
HCT-15 = experiment: NCI-60 SRB screen; type: cell-based, human; settings: Homo sapiens; single dose 10^−5 M; HCT-15, Colon cancer; read-out: Growth inhibition (%)
HT-29 = experiment: NCI-60 SRB screen; type: cell-based; settings: Homo sapiens; single dose 10^−5 M; HT-29, Colon cancer; read-out: Growth inhibition (%)
KM12 = experiment: NCI-60 SRB screen; type: cell-based, human; settings: Homo sapiens; single dose 10^−5 M; KM12, Colon cancer; read-out: Growth inhibition (%)
SW-620 = experiment: NCI-60 SRB screen; type: cell-based; settings: Homo sapiens; single dose 10^−5 M; SW-620, Colon cancer; read-out: Growth inhibition (%)
SF-268 = experiment: NCI-60 SRB screen; type: cell-based, human; settings: Homo sapiens; single dose 10^−5 M; SF-268, CNS cancer; read-out: Growth inhibition (%)
SF-295 = experiment: NCI-60 SRB screen; type: cell-based, human; settings: Homo sapiens; single dose 10^−5 M; SF-295, CNS cancer; read-out: Growth inhibition (%)
LOX IMVI = experiment: NCI-60 SRB screen; type: cell-based, human; settings: Homo sapiens, single dose 10^−5 M, Melanoma, read-out: Growth inhibition (%)
MALME-3M = experiment: NCI-60 SRB screen; type: cell-based, human; settings: Homo sapiens, single dose 10^−5 M, Melanoma, read-out: Growth inhibition (%)
M14 = experiment: NCI-60 SRB screen; type: cell-based, human; settings: Homo sapiens; single dose 10^−5 M; M14, Melanoma; read-out: Growth inhibition (%)
MDA-MB-435 = experiment: NCI-60 SRB screen; type: cell-based; settings: Homo sapiens, MDA-MB-435, read-out: Growth inhibition (%)
SK-MEL-2 = experiment: NCI-60 SRB screen; type: cell-based, human; settings: Homo sapiens; single dose 10^−5 M; SK-MEL-2, Melanoma; read-out: Growth inhibition (%)
SK-MEL-28 = experiment: NCI-60 SRB screen; type: cell-based; settings: Homo sapiens; single dose 10^−5 M; SK-MEL-28, Melanoma; read-out: Growth inhibition (%)
SK-MEL-5 = experiment: NCI-60 SRB screen; type: cell-based, human; settings: Homo sapiens; single dose 10^−5 M; SK-MEL-5, Melanoma; read-out: Growth inhibition (%)
UACC-257 = experiment: NCI-60 SRB screen; type: cell-based, human; settings: Homo sapiens; single dose 10^−5 M; UACC-257, Melanoma; read-out: Growth inhibition (%)
UACC-62 = experiment: NCI-60 SRB screen; type: cell-based, human; settings: Homo sapiens; single dose 10^−5 M; UACC-62, Melanoma; read-out: Growth inhibition (%)
IGROV1 = experiment: NCI-60 SRB screen; type: cell-based, human; settings: Homo sapiens, IGROV-1; single dose 10^−5 M; IGROV1, Ovarian cancer; read-out: Growth inhibition (%)
OVCAR-3 = experiment: NCI-60 SRB screen; type: cell-based, human; settings: Homo sapiens; single dose 10^−5 M; OVCAR-3, Ovarian cancer; read-out: Growth inhibition (%)
OVCAR-4 = experiment: NCI-60 SRB screen; type: cell-based, human; settings: Homo sapiens; single dose 10^−5 M; OVCAR-4, Ovarian cancer; read-out: Growth inhibition (%)
OVCAR-8 = experiment: NCI-60 SRB screen; type: cell-based, human; settings: Homo sapiens; single dose 10^−5 M; OVCAR-8, Ovarian cancer; read-out: Growth inhibition (%)
NCI/ADR-RES = experiment: NCI-60 SRB screen; type: cell-based, human; settings: Homo sapiens, single dose 10^−5 M, Ovarian cancer, read-out: Growth inhibition (%)
SK-OV-3 = experiment: NCI-60 SRB screen; type: cell-based, human; settings: Homo sapiens; single dose 10^−5 M; SK-OV-3, Ovarian cancer; read-out: Growth inhibition (%)
786-0 = experiment: NCI-60 SRB screen; type: cell-based; settings: Homo sapiens; single dose 10^−5 M; 786-0, Renal cancer; read-out: Growth inhibition (%)
ACHN = experiment: NCI-60 SRB screen; type: cell-based; settings: Homo sapiens, single dose 10^−5 M, Renal cancer, read-out: Growth inhibition (%)
CAKI-1 = experiment: NCI-60 SRB screen; type: cell-based, human; settings: Homo sapiens; single dose 10^−5 M; CAKI-1, Renal cancer; read-out: Growth inhibition (%)
SN12C = experiment: NCI-60 SRB screen; type: cell-based, human; settings: Homo sapiens, SN12C; single dose 10^−5 M; SN 12 C, Renal cancer; read-out: Growth inhibition (%)
TK-10 = experiment: NCI-60 SRB screen; type: cell-based, human; settings: Homo sapiens; single dose 10^−5 M; TK-10, Renal cancer; read-out: Growth inhibition (%)
UO-31 = experiment: NCI-60 SRB screen; type: cell-based, human; settings: Homo sapiens; single dose 10^−5 M; UO-31, Renal cancer; read-out: Growth inhibition (%)
[1] = system: panel of 60 cancer cell lines; experiment: NCI-60 SRB screen, mean or range over the panel; type: cell-based, human; settings: Homo sapiens; mean over the cell lines; single dose 10^−5 M; read-out: Mean growth inhibition (%)

## CCN1CCN(C2=C(Cl)c3c(sc4c(F)cccc34)C(c3cccc([N+](=O)[O-])c3)N2)CC1 (stereo not drawn) [Compound 8a, 4-Chloro-3–(4-ethylpiperzin-1-yl)-8-fluoro-1-(3-nitrophenyl)-1,2-dihydro [1]benzothieno[2,3-c]pyridine]
CCRF-CEM
  inhibition at 10 µM: 1.89%
HL-60(TB)
  inhibition at 10 µM: -9.32%
K-562
  inhibition at 10 µM: 13.2%
MOLT-4
  inhibition at 10 µM: 5.94%
SR
  inhibition at 10 µM: 23.5%
A549/ATCC
  inhibition at 10 µM: 1.8%
EKVX
  inhibition at 10 µM: 4.5%
HOP-62
  inhibition at 10 µM: 3.76%
HOP-92
  inhibition at 10 µM: 10.7%
NCI-H226
  inhibition at 10 µM: 17%
NCI-H23
  inhibition at 10 µM: 7.1%
NCI-H322M
  inhibition at 10 µM: -1.6%
NCI-H460
  inhibition at 10 µM: 0.6%
NCI-H522
  inhibition at 10 µM: 14.3%
COLO 205
  inhibition at 10 µM: -11.9%
HCC-2998
  inhibition at 10 µM: -2.53%
HCT-116
  inhibition at 10 µM: 15%
HCT-15
  inhibition at 10 µM: 2.5%
HT-29
  inhibition at 10 µM: 2.3%
KM12
  inhibition at 10 µM: -1.16%
SW-620
  inhibition at 10 µM: 4.03%
SF-268
  inhibition at 10 µM: 7.38%
SF-295
  inhibition at 10 µM: 0.4%
LOX IMVI
  inhibition at 10 µM: 6.7%
MALME-3M
  inhibition at 10 µM: 1.57%
M14
  inhibition at 10 µM: 6.73%
MDA-MB-435
  inhibition at 10 µM: -6.27%
SK-MEL-2
  inhibition at 10 µM: 3.85%
SK-MEL-28
  inhibition at 10 µM: -10.8%
SK-MEL-5
  inhibition at 10 µM: -14.1%
UACC-257
  inhibition at 10 µM: -7.62%
UACC-62
  inhibition at 10 µM: 11.6%
IGROV1
  inhibition at 10 µM: 23.8%
OVCAR-3
  inhibition at 10 µM: 1.03%
OVCAR-4
  inhibition at 10 µM: 3.25%
OVCAR-8
  inhibition at 10 µM: 2.09%
NCI/ADR-RES
  inhibition at 10 µM: -1.63%
SK-OV-3
  inhibition at 10 µM: 1.74%
786-0
  inhibition at 10 µM: -7.31%
ACHN
  inhibition at 10 µM: 9.21%
CAKI-1
  inhibition at 10 µM: 21.9%
SN12C
  inhibition at 10 µM: 2.25%
TK-10
  inhibition at 10 µM: -41.7%
UO-31
  inhibition at 10 µM: 35.8%
[1]
  inhibition at 10 µM: -0.2%
